Experimental findings from ChEMBL document CHEMBL5678818, “Discovery of potent SOS1 inhibitors that block RAS activation via disruption of the RAS-SOS1 interaction” (Proc Natl Acad Sci U S A, 2019) are described below.

Assay [1] deals with Calcium/calmodulin-dependent protein kinase type 1G (Homo sapiens) (UniProt Q96NX5). In words: Inhibition of CAMK1G (unknown origin) assessed as residual activity at 1000 nM by KINOMEscan analysis relative to control.
Assay [2] deals with Epidermal growth factor receptor (Homo sapiens), P00533 [L861Q]. The experiment in a line: Inhibition of EGFR L861Q mutant (unknown origin) assessed as residual activity at 1000 nM by KINOMEscan analysis relative to control.
In assay [3] the target is Fibroblast growth factor receptor 4 (Homo sapiens) (UniProt P22455). In words: Inhibition of FGFR4 (unknown origin) assessed as residual activity at 1000 nM by KINOMEscan analysis relative to control.
Assay [4] is filed under the species Homo sapiens. The experiment in a line: Inhibition of JNK2 (unknown origin) assessed as residual activity at 1000 nM by KINOMEscan analysis relative to control.
The target of assay [5] is T1, Serine/threonine-protein kinase Nek1 (Homo sapiens) (UniProt Q96PY6).
T1 sequence (whole entry): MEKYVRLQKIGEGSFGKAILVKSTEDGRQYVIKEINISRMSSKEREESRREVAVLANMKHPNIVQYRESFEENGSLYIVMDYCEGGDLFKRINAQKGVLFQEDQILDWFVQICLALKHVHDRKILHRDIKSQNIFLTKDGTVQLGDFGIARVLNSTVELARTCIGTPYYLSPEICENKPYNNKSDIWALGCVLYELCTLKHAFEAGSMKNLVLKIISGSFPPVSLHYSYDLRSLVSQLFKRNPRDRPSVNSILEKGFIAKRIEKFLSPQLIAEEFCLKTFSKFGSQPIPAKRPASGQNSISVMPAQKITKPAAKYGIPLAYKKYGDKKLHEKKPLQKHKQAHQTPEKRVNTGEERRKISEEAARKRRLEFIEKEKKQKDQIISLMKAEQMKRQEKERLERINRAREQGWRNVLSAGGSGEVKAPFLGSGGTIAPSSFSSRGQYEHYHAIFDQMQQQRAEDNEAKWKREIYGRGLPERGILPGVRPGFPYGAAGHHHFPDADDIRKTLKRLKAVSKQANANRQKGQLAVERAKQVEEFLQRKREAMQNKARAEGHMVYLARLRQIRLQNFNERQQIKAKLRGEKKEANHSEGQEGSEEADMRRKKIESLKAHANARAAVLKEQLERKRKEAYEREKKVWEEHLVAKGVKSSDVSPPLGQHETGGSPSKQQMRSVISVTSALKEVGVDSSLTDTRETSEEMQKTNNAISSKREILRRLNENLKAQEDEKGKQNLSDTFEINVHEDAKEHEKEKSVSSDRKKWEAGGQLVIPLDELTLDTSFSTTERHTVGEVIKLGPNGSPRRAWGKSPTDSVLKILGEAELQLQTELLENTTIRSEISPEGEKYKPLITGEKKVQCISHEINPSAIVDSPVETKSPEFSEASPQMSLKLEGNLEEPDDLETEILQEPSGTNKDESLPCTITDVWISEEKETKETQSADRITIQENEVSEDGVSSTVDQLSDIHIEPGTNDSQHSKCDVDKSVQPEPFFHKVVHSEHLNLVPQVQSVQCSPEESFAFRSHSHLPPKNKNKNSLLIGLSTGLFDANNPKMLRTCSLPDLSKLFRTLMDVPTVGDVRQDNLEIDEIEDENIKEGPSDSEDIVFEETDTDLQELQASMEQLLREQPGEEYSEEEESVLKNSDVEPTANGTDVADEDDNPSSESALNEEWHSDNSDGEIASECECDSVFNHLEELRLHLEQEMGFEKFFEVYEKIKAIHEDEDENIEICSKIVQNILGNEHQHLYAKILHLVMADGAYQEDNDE
The experiment in a line: Inhibition of NEK1 (unknown origin) assessed as residual activity at 1000 nM by KINOMEscan analysis relative to control.

Assay [6] has as its target T2, Testis-specific serine/threonine-protein kinase 1 (Homo sapiens) (UniProt Q9BXA7).
T2 sequence (whole entry): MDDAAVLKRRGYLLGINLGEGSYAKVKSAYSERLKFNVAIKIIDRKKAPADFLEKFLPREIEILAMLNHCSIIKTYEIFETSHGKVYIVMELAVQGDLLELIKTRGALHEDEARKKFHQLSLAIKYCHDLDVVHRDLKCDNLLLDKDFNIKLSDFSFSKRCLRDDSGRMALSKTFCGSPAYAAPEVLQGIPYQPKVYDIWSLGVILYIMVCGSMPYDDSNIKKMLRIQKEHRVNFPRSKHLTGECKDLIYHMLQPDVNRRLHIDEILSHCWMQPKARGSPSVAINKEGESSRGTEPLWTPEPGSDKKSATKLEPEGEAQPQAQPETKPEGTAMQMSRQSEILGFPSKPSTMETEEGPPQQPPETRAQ
The experiment in a line: Inhibition of TSSK1B (unknown origin) assessed as residual activity at 1000 nM by KINOMEscan analysis relative to control.

Calcium/calmodulin-dependent protein kinase type 1G (Homo sapiens), sequence (Q96NX5 whole entry): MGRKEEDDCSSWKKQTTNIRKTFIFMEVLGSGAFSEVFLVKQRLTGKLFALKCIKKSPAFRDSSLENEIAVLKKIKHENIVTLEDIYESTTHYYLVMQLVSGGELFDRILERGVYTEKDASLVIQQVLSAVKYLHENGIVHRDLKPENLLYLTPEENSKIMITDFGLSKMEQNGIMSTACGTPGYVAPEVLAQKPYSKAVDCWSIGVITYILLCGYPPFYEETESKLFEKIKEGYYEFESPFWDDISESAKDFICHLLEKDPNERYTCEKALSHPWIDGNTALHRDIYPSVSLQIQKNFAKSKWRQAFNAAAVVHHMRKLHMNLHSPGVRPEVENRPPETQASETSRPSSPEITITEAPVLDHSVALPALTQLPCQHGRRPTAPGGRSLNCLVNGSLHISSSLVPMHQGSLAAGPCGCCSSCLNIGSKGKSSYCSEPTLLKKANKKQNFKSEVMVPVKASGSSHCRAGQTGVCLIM
Fibroblast growth factor receptor 4 (Homo sapiens), sequence (P22455 22-802 limits assumed): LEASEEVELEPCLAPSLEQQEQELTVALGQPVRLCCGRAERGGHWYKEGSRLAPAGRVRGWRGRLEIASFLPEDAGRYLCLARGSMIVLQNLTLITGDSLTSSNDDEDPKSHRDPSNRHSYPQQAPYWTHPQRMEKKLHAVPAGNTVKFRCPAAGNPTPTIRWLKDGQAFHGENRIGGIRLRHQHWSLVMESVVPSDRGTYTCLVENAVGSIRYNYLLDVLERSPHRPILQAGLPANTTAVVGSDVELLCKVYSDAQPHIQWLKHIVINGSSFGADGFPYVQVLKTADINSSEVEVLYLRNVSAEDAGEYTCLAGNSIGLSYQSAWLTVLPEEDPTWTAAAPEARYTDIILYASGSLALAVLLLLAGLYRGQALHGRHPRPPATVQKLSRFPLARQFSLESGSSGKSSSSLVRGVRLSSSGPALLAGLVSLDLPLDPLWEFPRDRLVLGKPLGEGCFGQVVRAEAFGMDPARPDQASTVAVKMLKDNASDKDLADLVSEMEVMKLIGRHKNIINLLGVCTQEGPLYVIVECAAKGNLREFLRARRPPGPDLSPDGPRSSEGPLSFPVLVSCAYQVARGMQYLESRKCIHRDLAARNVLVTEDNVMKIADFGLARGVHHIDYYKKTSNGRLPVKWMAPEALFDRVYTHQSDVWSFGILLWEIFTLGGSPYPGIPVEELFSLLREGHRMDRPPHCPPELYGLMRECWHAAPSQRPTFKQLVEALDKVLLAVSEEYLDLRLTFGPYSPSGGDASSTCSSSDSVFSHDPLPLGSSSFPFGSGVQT

Take `COc1cc2ncnc(N[C@H](C)c3cccc4ccccc34)c2cc1OC`: the Activity is 98% in assay [1]; 1.1% in assay [2]; 98% in assay [3]; 93% in assay [4]; 96% in assay [5]; 100% in assay [6].
Consider `COc1cc2nc(C)nc(N[C@H](C)c3cccc(-c4cn[nH]c4)c3)c2cc1OC`, for which the Activity in assay [1] amounted to 100%; in assay [2], 86%; in assay [3], 97%; in assay [4] it was 71%; in assay [5], 100%; in assay [6], 98%.
